Experiments:
Assay type in all cases: in vivo
[1] = test system: Kochia scoparia; experiment: Herbicidal post-emergence action; conditions: visual assessment after ca. 3 weeks vs untreated controls
Excerpt: (§1) Seeds of mono- and dicotyledonous weed plants were sown in plastic pots (double sowings with one species of mono- and one species of dicotyledonous weed plants per pot), in sandy loam, covered with soil and grown under controlled growth conditions. 2 to 3 weeks after sowing, the test plants were sprayed in the single-leaf stage. The compounds according to the invention, formulated in the form of wettable powders (WP) or as emulsifiable concentrates (EC), were sprayed onto the green plant parts as an aqueous suspension or as an emulsion, with the addition of 0.5% of an additive, at an application rate of 600 litres of water per hectare (converted). The test plants were placed in the greenhouse for ca. 3 weeks under optimum growth conditions, and then the effect of the preparations is assessed visually in comparison with untreated controls (herbicidal effect in percent (%): 100% effect = plants have died, 0% effect = as control plants).
as §1, with “(EC), are” for “(EC), were”, “controls (herbicidaleffectinpercent(%):100%effect=plantshavedied,0%effect=ascontrolplants). [formula]” for “controls (herbicidal effect in percent (%): 100% effect = plants have died, 0% effect = as control plants).”

[2] = test system: Veronica persica; experiment: Herbicidal post-emergence action; conditions: visual assessment after ca. 3 weeks vs untreated controls
Excerpt: as §1
as §1, with “(EC), are” for “(EC), were”, “controls (herbicidaleffectinpercent(%):100%effect=plantshavedied,0%effect=ascontrolplants). [formula]” for “controls (herbicidal effect in percent (%): 100% effect = plants have died, 0% effect = as control plants).”

[3] = test system: Setaria viridis; experiment: Herbicidal post-emergence action; conditions: 1280 g/ha, visual assessment after ca. 3 weeks vs untreated controls
Excerpt: as §1
as §1, with “(EC), are” for “(EC), were”, “controls (herbicidaleffectinpercent(%):100%effect=plantshavedied,0%effect=ascontrolplants). [formula]” for “controls (herbicidal effect in percent (%): 100% effect = plants have died, 0% effect = as control plants).”

[4] = test system: Stellaria media; experiment: Herbicidal post-emergence action; conditions: visual assessment after ca. 3 weeks vs untreated controls
Excerpt: as §1
as §1, with “(EC), are” for “(EC), were”, “controls (herbicidaleffectinpercent(%):100%effect=plantshavedied,0%effect=ascontrolplants). [formula]” for “controls (herbicidal effect in percent (%): 100% effect = plants have died, 0% effect = as control plants).”

[5] = test system: Matricaria inodora; experiment: Herbicidal post-emergence action; conditions: visual assessment after ca. 3 weeks vs untreated controls
Excerpt: as §1
as §1, with “(EC), are” for “(EC), were”, “controls (herbicidaleffectinpercent(%):100%effect=plantshavedied,0%effect=ascontrolplants). [formula]” for “controls (herbicidal effect in percent (%): 100% effect = plants have died, 0% effect = as control plants).”

[6] = test system: Poa annua; experiment: Herbicidal post-emergence action; conditions: visual assessment after ca. 3 weeks vs untreated controls
Excerpt: as §1
as §1, with “(EC), are” for “(EC), were”, “controls (herbicidaleffectinpercent(%):100%effect=plantshavedied,0%effect=ascontrolplants). [formula]” for “controls (herbicidal effect in percent (%): 100% effect = plants have died, 0% effect = as control plants).”

[7] = test system: Alopecurus myosuroides; experiment: Herbicidal post-emergence action; conditions: 1280 g/ha, visual assessment after ca. 3 weeks vs untreated controls
Excerpt: as §1
as §1, with “(EC), are” for “(EC), were”, “controls (herbicidaleffectinpercent(%):100%effect=plantshavedied,0%effect=ascontrolplants). [formula]” for “controls (herbicidal effect in percent (%): 100% effect = plants have died, 0% effect = as control plants).”

[8] = test system: Amaranthus retroflexus; experiment: Herbicidal post-emergence action; conditions: visual assessment after ca. 3 weeks vs untreated controls
Excerpt: as §1
as §1, with “(EC), are” for “(EC), were”, “controls (herbicidaleffectinpercent(%):100%effect=plantshavedied,0%effect=ascontrolplants). [formula]” for “controls (herbicidal effect in percent (%): 100% effect = plants have died, 0% effect = as control plants).”

[9] = test system: Stellaria media; experiment: Herbicidal pre-emergence action; conditions: 1280 g/ha, visual grading after ca. 3 weeks vs untreated controls
Excerpt: (§2) Seeds of mono- and dicotyledonous weed plants were sown in plastic pots (double sowings with one species of mono- and one species of dicotyledonous weed plants per pot), in sandy loam, and covered with soil. The compounds according to the invention, formulated in the form of wettable powders (WP) or as emulsifiable concentrates (EC), were applied to the surface of the covering soil as an aqueous suspension or as an emulsion, with the addition of 0.5% of an additive, at an application rate of 600 litres of water per hectare (converted). Following treatment, the pots were placed in a greenhouse and kept under optimum growth conditions for the test plants. The visual grading of the damage to the test plants is carried out after ca. 3 weeks in comparison to untreated controls (herbicidal effect in percent (%): 100% effect = plants have died, 0% effect = as control plants). Seeds of mono- and dicotyledonous weed plants were sown in plastic pots (double sowings with one species of mono- and one species of dicotyledonous weed plants per pot), in sandy loam, and covered with soil. The compounds according to the invention, formulated in the form of wettable powders (WP) or as emulsifiable concentrates (EC), were applied to the surface of the covering soil as an aqueous suspension or as an emulsion, with the addition of 0.5% of an additive, at an application rate of 600 litres of water per hectare (converted). Following treatment, the pots were placed in a greenhouse and kept under optimum growth conditions for the test plants. The visual grading of the damage to the test plants is carried out after ca. 3 weeks in comparison to untreated controls (herbicidal effect in percent (%): 100% effect = plants have died, 0% effect = as control plants).

[10] = test system: Matricaria inodora; experiment: Herbicidal pre-emergence action; conditions: 1280 g/ha, visual grading after ca. 3 weeks vs untreated controls
Excerpt: as §2

[11] = test system: Poa annua; experiment: Herbicidal pre-emergence action; conditions: visual grading after ca. 3 weeks vs untreated controls
Excerpt: as §2

[12] = test system: Lolium rigidum; experiment: Herbicidal pre-emergence action; conditions: visual grading after ca. 3 weeks vs untreated controls
Excerpt: as §2

[13] = test system: Lolium rigidum; experiment: Herbicidal post-emergence action; conditions: visual assessment after ca. 3 weeks vs untreated controls
Excerpt: as §1
as §1, with “(EC), are” for “(EC), were”, “controls (herbicidaleffectinpercent(%):100%effect=plantshavedied,0%effect=ascontrolplants). [formula]” for “controls (herbicidal effect in percent (%): 100% effect = plants have died, 0% effect = as control plants).”

[14] = test system: Echinochloa crus-galli; experiment: Herbicidal pre-emergence action; conditions: 1280 g/ha, visual grading after ca. 3 weeks vs untreated controls
Excerpt: as §2

[15] = test system: Kochia scoparia; experiment: Herbicidal pre-emergence action; conditions: 1280 g/ha, visual grading after ca. 3 weeks vs untreated controls
Excerpt: as §2

[16] = test system: Veronica persica; experiment: Herbicidal pre-emergence action; conditions: 1280 g/ha, visual grading after ca. 3 weeks vs untreated controls
Excerpt: as §2

[17] = test system: Alopecurus myosuroides; experiment: Herbicidal pre-emergence action; conditions: 1280 g/ha, visual grading after ca. 3 weeks vs untreated controls
Excerpt: as §2

[18] = test system: Abutilon theophrasti; experiment: Herbicidal pre-emergence action; conditions: 1280 g/ha, visual grading after ca. 3 weeks vs untreated controls
Excerpt: as §2

[19] = test system: Amaranthus retroflexus; experiment: Herbicidal pre-emergence action; conditions: 1280 g/ha, visual grading after ca. 3 weeks vs untreated controls
Excerpt: as §2

[20] = test system: Abutilon theophrasti; experiment: Herbicidal post-emergence action; conditions: 1280 g/ha, visual assessment after ca. 3 weeks vs untreated controls
Excerpt: as §1
as §1, with “(EC), are” for “(EC), were”, “controls (herbicidaleffectinpercent(%):100%effect=plantshavedied,0%effect=ascontrolplants). [formula]” for “controls (herbicidal effect in percent (%): 100% effect = plants have died, 0% effect = as control plants).”

[21] = test system: Digitaria sanguinalis; experiment: Herbicidal post-emergence action; conditions: visual assessment after ca. 3 weeks vs untreated controls
Excerpt: as §1
as §1, with “(EC), are” for “(EC), were”, “controls (herbicidaleffectinpercent(%):100%effect=plantshavedied,0%effect=ascontrolplants). [formula]” for “controls (herbicidal effect in percent (%): 100% effect = plants have died, 0% effect = as control plants).”

[22] = test system: Digitaria sanguinalis; experiment: Herbicidal pre-emergence action; conditions: 1280 g/ha, visual grading after ca. 3 weeks vs untreated controls
Excerpt: as §2

Row | SMILES | herbicidal effect in percent (%), KCHSC ([1]; 1280 g/ha) [%] | herbicidal effect in percent (%), VERPE ([2]; 1280 g/ha) [%] | herbicidal effect in percent (%), SETVI [3] [%] | herbicidal effect in percent (%), STEME ([4]; 1280 g/ha) [%] | herbicidal effect in percent (%), MATIN ([5]; 320 g/ha) [%] | herbicidal effect in percent (%), MATIN ([5]; 1280 g/ha) [%] | herbicidal effect in percent (%), POAAN ([6]; 1280 g/ha) [%] | herbicidal effect in percent (%), ALOMY [7] [%] | herbicidal effect in percent (%), AMARE ([8]; 1280 g/ha) [%] | herbicidal effect in percent (%), STEME [9] [%] | herbicidal effect in percent (%), MATIN [10] [%] | herbicidal effect in percent (%), POAAN ([11]; 320 g/ha) [%] | herbicidal effect in percent (%), POAAN ([11]; 1280 g/ha) [%] | herbicidal effect in percent (%), LOLRI ([12]; 1280 g/ha) [%] | herbicidal effect in percent (%), VERPE ([2]; 320 g/ha) [%] | herbicidal effect in percent (%), STEME ([4]; 320 g/ha) [%] | herbicidal effect in percent (%), LOLRI ([13]; 1280 g/ha) [%] | herbicidal effect in percent (%), ALOMY [17] [%] | herbicidal effect in percent (%), AMARE [19] [%] | herbicidal effect in percent (%), ABUTH [20] [%] | also measured
1 | O=C(Nc1ncns1)c1cc(F)ncc1Br [Example I-027, 5-bromo-2-fluoro-N-(1,2,4-thiadiazol-5-yl)pyridine-4-carboxamide] | 90 | 90 | 90 | 90 | 90 | 90 | 90 | 90 | 90 | 100 | 90 | 90 | 90 | 100 |  |  |  |  |  |  | herbicidal effect in percent (%), LOLRI ([12]; 320 g/ha): 90%
2 | O=C(Nc1ncns1)c1cc(Cl)ncc1C(F)(F)F [Example I-013, 2-chloro-N-(1,2,4-thiadiazol-5-yl)-5-(trifluoromethyl)pyridine-4-carboxamide] | 100 | 100 |  | 100 | 100 | 100 | 100 | 90 | 100 | 100 | 100 |  | 90 | 100 | 100 | 100 | 100 | 90 | 100 |  | herbicidal effect in percent (%), KCHSC ([1]; 320 g/ha): 100%; herbicidal effect in percent (%), POAAN ([6]; 320 g/ha): 100%; herbicidal effect in percent (%), LOLRI ([13]; 320 g/ha): 90%; herbicidal effect in percent (%), ECHCG [14]: 100%; herbicidal effect in percent (%), KCHSC [15]: 100%; herbicidal effect in percent (%), VERPE [16]: 100%; herbicidal effect in percent (%), LOLRI ([12]; 320 g/ha): 90%; herbicidal effect in percent (%), ABUTH [18]: 90%
3 | O=C(Nc1ncns1)c1cc(Cl)ncc1OC(F)(F)F [Example 1-012, 2-chloro-N-(1,2,4-thiadiazol-5-yl)-5-(trifluoromethoxy)pyridine-4-carboxamide] | 90 | 100 | 90 | 100 |  | 100 | 90 |  | 100 |  |  |  | 90 | 100 |  |  |  |  |  | 90 | 
4 | O=C(Nc1ncns1)c1cc(Cl)ncc1Cl [Example I-011] | 100 | 100 |  | 100 | 100 | 100 | 90 | 100 | 100 | 90 | 100 |  | 100 | 90 | 90 | 90 | 90 | 90 | 90 | 90 | herbicidal effect in percent (%), KCHSC ([1]; 320 g/ha): 90%; herbicidal effect in percent (%), DIGSA ([21]; 320 g/ha): 90%; herbicidal effect in percent (%), DIGSA ([21]; 1280 g/ha): 100%; herbicidal effect in percent (%), AMARE ([8]; 320 g/ha): 90%
5 | O=C(Nc1nc(Cl)ns1)c1ccncc1I [Example 1-023, N-(3-chloro-1,2,4-thiadiazol-5-yl)-3-iodo-pyridine-4-carboxamide] | 90 |  |  | 90 |  | 100 | 90 |  | 90 | 100 | 100 |  |  | 90 |  |  |  |  | 100 |  | 
6 | O=C(Nc1ncns1)c1c(Br)cncc1Br [Example I-015] | 100 | 100 |  | 100 | 100 | 100 | 100 | 100 | 90 | 90 | 100 | 100 | 100 | 90 | 100 | 100 | 100 | 100 |  | 100 | herbicidal effect in percent (%), DIGSA ([21]; 1280 g/ha): 100%; herbicidal effect in percent (%), POAAN ([6]; 320 g/ha): 100%; herbicidal effect in percent (%), DIGSA [22]: 100%; herbicidal effect in percent (%), VERPE [16]: 100%
